Results reported in patent US11655235B2, “Pyrrolidine and piperidine compounds” (YUHAN CORPORATION, priority 2019, dated 2023).

Experiments:
[1] = target: T1, DPP4 (Homo sapiens, UniProt P27487); conditions: cited from earlier work
Target sequence in this assay (P27487 whole entry, species assumed): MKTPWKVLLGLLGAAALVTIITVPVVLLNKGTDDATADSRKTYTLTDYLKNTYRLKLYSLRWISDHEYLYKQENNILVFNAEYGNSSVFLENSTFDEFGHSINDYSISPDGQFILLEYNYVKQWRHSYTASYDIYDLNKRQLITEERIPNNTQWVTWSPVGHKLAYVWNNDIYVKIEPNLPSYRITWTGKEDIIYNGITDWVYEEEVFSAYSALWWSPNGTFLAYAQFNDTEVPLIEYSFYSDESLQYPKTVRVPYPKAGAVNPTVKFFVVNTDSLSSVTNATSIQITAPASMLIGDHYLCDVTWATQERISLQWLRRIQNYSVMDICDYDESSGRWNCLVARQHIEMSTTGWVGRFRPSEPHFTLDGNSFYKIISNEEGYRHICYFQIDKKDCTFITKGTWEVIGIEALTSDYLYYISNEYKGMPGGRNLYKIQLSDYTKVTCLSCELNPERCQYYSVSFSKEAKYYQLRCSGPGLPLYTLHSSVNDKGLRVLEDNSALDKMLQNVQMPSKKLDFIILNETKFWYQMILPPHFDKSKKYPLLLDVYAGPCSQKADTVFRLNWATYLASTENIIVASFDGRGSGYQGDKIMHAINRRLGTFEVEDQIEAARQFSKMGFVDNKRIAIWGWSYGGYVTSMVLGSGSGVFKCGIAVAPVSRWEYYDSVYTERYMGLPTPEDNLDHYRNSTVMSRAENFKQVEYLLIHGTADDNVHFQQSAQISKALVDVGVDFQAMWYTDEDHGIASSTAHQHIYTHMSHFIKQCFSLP

[2] = tested on: tumors; conditions: orally administered, mice; cited from earlier work
[3] = target: T2, recombinant human DPP9 (Homo sapiens, UniProt Q86TI2); assay: DPP9 inhibition, fluorogenic substrate H-Gly-Pro-AMC; format: biochemical; conditions: recombinant human DPP9
T2 construct: purchased R&D Systems
Procedure, shortened: (§1)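 Inhibitors are titrated in an 8-point series into the enzyme's assay buffer (DMSO no more than 0.5%). Substrate cleavage at 25 °C is followed by fluorescence, excitation 380 nm and emission 460 nm. IC50 values come from a four-variable logistic model.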

[4] = target: T3, recombinant human PREP (Homo sapiens, UniProt P48147); assay: PREP inhibition, fluorogenic substrate Z-Gly-Pro-AMC; format: biochemical; conditions: Inhibitory Activity (IC50, nM) PREP, recombinant human PREP
T3 construct: purchased R&D System
T3 sequence (P48147 1-710): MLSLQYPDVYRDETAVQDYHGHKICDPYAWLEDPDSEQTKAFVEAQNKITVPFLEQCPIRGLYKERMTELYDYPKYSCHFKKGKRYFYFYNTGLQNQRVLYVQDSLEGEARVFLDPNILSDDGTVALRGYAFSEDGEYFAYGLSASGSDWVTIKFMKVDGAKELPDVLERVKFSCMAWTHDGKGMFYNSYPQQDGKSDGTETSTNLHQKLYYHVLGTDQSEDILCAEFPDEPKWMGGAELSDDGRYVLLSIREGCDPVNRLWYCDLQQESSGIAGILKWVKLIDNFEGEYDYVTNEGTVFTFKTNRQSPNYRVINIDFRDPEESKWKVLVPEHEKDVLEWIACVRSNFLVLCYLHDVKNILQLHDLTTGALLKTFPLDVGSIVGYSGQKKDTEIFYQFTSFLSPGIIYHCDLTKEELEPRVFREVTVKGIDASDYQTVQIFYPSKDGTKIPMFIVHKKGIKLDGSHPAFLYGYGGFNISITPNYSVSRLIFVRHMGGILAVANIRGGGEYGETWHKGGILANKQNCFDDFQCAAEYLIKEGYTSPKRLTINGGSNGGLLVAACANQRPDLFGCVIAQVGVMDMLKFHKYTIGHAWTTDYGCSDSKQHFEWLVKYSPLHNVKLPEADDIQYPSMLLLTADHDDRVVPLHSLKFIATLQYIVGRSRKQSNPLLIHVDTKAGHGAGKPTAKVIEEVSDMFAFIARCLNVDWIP
Procedure, shortened: as §1

[5] = target: T4, recombinant human DPP7 (Homo sapiens, UniProt Q9UHL4); assay: DPP7 inhibition, fluorogenic substrate Lys-Pro-AMC; format: biochemical; conditions: recombinant human DPP7
T4 construct: purchased R&D Systems
Procedure, shortened: as §1

[6] = target: T5, Recombinant human FAP (Homo sapiens, UniProt Q12884); assay: FAP FRET assay, FGF21-sequence FRET peptide substrate; format: biochemical; conditions: FRET peptide with human FGF21 sequence, 6 μM, 37° C.
T5 construct: purchased R&D systems
T5 sequence (Q12884 1-760): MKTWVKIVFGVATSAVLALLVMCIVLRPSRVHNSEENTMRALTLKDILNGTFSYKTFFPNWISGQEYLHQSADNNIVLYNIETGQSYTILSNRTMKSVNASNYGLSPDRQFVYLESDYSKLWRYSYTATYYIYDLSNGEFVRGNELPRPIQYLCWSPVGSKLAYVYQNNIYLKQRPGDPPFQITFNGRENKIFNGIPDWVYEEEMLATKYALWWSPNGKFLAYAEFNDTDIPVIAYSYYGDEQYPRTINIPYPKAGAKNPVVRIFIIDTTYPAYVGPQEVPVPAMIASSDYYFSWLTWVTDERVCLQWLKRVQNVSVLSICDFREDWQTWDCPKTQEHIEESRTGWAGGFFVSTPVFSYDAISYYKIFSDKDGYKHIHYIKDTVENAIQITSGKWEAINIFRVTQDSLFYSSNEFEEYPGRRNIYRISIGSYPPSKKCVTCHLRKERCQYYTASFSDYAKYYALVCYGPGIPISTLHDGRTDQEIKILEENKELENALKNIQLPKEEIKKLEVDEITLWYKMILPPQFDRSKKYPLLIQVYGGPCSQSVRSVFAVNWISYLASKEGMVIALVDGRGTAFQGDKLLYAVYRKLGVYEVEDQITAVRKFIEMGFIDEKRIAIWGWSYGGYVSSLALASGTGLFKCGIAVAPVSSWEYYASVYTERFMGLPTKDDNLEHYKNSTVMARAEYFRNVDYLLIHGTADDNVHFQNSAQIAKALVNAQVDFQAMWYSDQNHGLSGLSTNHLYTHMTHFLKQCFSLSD
Procedure, shortened: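 FRET peptide bearing human FGF21 sequence (6 μM final) cleaved by 10 ng recombinant human FAP at 37° C in HEPES pH 7.2 buffer with NaCl, BSA and EDTA, DMSO up to 0.1%. Signal-rate decrease versus uninhibited control fitted to a four-variable logistic model for IC50.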

[7] = target: T6, recombinant human DPP8 (Homo sapiens, UniProt Q6V1X1); assay: DPP8 inhibition, fluorogenic substrate Z-Ala-Pro-AMC; format: biochemical; conditions: recombinant human DPP8
T6 construct: purchased PBS Bioscience
Procedure, shortened: as §1

[8] = target: T1, DPP4; assay: DPP4 inhibition, fluorogenic substrate H-Gly-Pro-AMC; format: biochemical; design: purchased R&D Systems; conditions: recombinant human DPP4
Target sequence in this assay (P27487 whole entry): as the sequence (P27487 whole entry, species assumed) above

T2 sequence (Q86TI2 whole entry): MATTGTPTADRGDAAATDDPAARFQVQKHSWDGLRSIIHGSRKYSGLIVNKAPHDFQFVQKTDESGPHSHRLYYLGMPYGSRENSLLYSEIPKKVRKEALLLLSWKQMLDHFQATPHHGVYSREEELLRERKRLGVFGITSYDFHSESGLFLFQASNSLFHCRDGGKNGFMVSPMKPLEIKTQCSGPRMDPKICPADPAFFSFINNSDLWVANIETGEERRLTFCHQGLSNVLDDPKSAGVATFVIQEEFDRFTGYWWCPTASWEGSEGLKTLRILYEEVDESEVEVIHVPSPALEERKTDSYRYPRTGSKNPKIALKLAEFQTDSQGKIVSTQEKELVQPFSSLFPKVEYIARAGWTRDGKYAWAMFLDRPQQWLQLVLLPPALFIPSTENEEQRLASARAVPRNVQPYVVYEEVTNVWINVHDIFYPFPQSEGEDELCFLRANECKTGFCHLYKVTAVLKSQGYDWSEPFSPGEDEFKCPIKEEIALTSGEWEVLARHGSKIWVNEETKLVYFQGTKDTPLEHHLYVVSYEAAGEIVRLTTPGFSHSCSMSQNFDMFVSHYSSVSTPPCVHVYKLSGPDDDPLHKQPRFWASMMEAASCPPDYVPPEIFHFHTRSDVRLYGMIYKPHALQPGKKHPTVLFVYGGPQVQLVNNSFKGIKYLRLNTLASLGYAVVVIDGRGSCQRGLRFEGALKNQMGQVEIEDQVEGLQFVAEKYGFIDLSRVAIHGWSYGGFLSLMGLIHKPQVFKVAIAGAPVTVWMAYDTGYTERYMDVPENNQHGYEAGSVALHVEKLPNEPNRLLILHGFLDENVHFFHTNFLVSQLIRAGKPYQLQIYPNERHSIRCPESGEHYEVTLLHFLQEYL
T6 sequence (Q6V1X1 whole entry): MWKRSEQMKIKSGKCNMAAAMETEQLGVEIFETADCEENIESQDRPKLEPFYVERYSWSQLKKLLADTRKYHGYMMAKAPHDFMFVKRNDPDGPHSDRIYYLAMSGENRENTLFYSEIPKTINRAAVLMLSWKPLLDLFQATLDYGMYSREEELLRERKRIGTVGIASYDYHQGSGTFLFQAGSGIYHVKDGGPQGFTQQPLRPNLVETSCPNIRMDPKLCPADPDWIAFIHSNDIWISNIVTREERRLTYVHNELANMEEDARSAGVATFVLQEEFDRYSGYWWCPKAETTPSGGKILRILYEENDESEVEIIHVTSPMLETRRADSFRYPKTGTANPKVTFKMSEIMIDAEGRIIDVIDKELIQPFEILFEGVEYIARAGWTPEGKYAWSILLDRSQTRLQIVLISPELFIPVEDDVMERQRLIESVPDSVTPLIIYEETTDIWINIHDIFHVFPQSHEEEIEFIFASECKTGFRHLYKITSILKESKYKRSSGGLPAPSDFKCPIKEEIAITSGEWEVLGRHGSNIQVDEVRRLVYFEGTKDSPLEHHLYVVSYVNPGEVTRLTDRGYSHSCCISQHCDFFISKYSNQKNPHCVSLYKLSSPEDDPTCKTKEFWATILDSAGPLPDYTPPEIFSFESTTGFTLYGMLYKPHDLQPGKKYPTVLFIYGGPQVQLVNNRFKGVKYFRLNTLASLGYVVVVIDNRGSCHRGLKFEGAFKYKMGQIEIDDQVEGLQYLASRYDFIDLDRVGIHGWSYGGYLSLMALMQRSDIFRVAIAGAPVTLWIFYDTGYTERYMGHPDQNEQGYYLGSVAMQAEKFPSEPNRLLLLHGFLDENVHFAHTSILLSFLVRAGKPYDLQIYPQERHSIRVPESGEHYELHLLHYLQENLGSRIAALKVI

SMILES	DPP4 inhibitory activity [1]	anticancer activities [2]	IC50 [3] [nM]	IC50 [4] [nM]	IC50 [5] [nM]	IC50 [6] [nM]	IC50 [7] [nM]	IC50 [8] [nM]
CC(C)[C@H](N)C(=O)N1CCC[C@H]1B(O)O [Val-boroPro, Talabostat]	inhibitory activity							
CC(C)[C@H](N)C(=O)N1CCC[C@H]1B(O)O [ValboroPro, Val-boroPro]		exhibits anticancer activities in mice by delaying the proliferation of tumors and inducing the degeneration of tumors						
COc1cccc2c(OC3CCN(CC(=O)N4C[C@@H](F)C[C@H]4C#N)CC3)ccnc12 [Example 438, (2S,4S)-4-fluoro-1-[2-[4-[(8-methoxy-4-quinolyl)oxy]-1-piperidyl]acetyl]pyrrolidine-2-carbonitrile]			5970	156	3580	7.7	3380	5670
Cc1cc(OC2CCN(CC(=O)N3C[C@@H](F)C[C@H]3C#N)CC2)c2cc(F)ccc2n1 [Example 437, (2S,4S)-4-fluoro-1-[2-[4-[(6-fluoro-2-methyl-4-quinolyl)oxy]-1-piperidyl]acetyl]pyrrolidine-2-carbonitrile]			17400	454	6260	1.8	4150	4490
N#C[C@@H]1CCCN1C(=O)CN1CCC(Nc2ccc(C(=O)Nc3ncccn3)c3ncccc23)CC1 [Example 402, 5-[[1-[2-oxo-2-[(2S)-2-cyanopyrrolidin-1-yl]ethyl]-4-piperidyl]amino]-N-pyrimidin-2-yl-quinoline-8-carboxamide]			7830	359	1160	3.7	1520	12400
N#C[C@@H]1C[C@H](F)CN1C(=O)CN1CCC(Nc2ccc(C(=O)Nc3ccccn3)c3ncccc23)CC1 [Example 404, 5-[[1-[2-oxo-2-[(2S,4S)-2-cyano-4-fluoro-pyrrolidin-1-yl]ethyl]-4-piperidyl]amino]-N-(2-pyridyl)quinoline-8-carboxamide]			682	78.3	634	1.8	596	4730
N#C[C@@H]1CCCN1C(=O)CN1CC[C@@H](Nc2ccc(F)c3ncccc23)C1 [Example 199, (2S)-1-[2-[(3R)-3-[(8-fluoro-5-quinolyl)amino]pyrrolidin-1-yl]acetyl]pyrrolidine-2-carbonitrile]			10900	7250	8010	2.3	8230	2620
N#C[C@@H]1C[C@H](F)CN1C(=O)CN1CCC(Nc2ccc(C(=O)Nc3ccon3)c3ncccc23)CC1 [Example 407, N-isoxazol-3-yl-5-[[1-[2-oxo-2-[(2S,4S)-2-cyano-4-fluoro-pyrrolidin-1-yl]ethyl]-4-piperidyl]amino]quinoline-8-carboxamide]			756	< 30	395	3.4	314	1820
CN(c1ccc(F)c2ncccc12)[C@H]1CCN(CC(=O)N2C[C@@H](F)C[C@H]2C#N)C1 [Example 158, (2S,4S)-4-fluoro-1-(2-((S)-3-((8-fluoroquinolin-5-yl)(methyl)amino)pyrrolidin-1-yl)acetyl)pyrrolidine-2-carbonitrile]			3370	1720	4900	4	8620	2090
